Experimental data reported in patent US20260183320A1, “METHOD FOR TREATING CANCER BY COMBINING ALKYLATING AGENT PRODRUG AND CELL CYCLE INHIBITOR” (ASCENTAWITS PHARMACEUTICALS, LTD., priority 2022, published 2026).

What was measured:
H460 cell line = H460 cell line proliferation inhibition assay under normoxia and hypoxia (CTG); format: cell-based; conditions: for IC50: Homo sapiens, NCI-H460, H460
Experimental: (§1) 24-well plates with glass inserts were used in assays under hypoxia, and ordinary plastic 24-well plates were used in assays under normoxia. • 2) The cells were incubated overnight at 37° C. in an incubator with 5% CO2. • 3) Treatment with Compounds
(§2) A hypoxia workstation was tuned to create a hypoxic environment, and an oxygen indicator was used to confirm the hypoxia in the workstation.
(§3) After cell plating for 24 hours, the 24-well plates with glass inserts were transferred into the hypoxia workstation.
(§4) The 24-well plates were placed on a shaker, uncovered and shaken to allow air exchange for 5 min.
(§5) For each well for combination therapy, 5 or 10 μL of medium was removed and 5 μL of adavosertib (to a final concentration of 1 or 10 μM) or ceralasertib (to a final concentration of 200 or 2000 μM), followed by incubation for 2 h.
(§6) To each well, 5 or 10 μL of the compound was added at a 100× concentration. Three replicate wells were set up for each group.
(§7) Gentle shaking was carried out until homogeneous mixing of the compound, and the 24-well plates were incubated for 3 hours in the hypoxia workstation with their lids being half opened.
(§8) 24 hours after plating of the cells, for each well for combination therapy, 5 or 10 μL of medium was removed and 5 μL of adavosertib (to a final concentration of 1 or 10 μM) or ceralasertib (to a final concentration of 200 or 2000 μM), followed by incubation for 2 h.
In the H460 cell proliferation inhibition assays, adavosertib was added to final concentrations of 3 μM and 30 μM, and ceralasertib was added to final concentrations of 2 μM, 20 µM and 1000 μM.

HT29 cell line = HT29 cell line proliferation inhibition assay under normoxia and hypoxia (CTG); format: cell-based; conditions: for additive cytotoxic effect in combination therapy with adavosertib / additive cytotoxic effect in combination therapy with ceralasertib: HT29 (p53-deficient); for Ratio single/combo under Hypoxia / Ratio single/combo under Normoxia / Normoxia/Hypoxia Ratio: HT29; for IC50: Homo sapiens, HT-29, HT29
Experimental: as §1, §2, §3, §4, §5, §6, §7, §8

[1] = H460 (wild-type p53), normoxia or hypoxia

**Q.** With `Cn1c(COP(=O)(NCCBr)NCCBr)cnc1[N+](=O)[O-]` [TH-302] as the molecule, how does the “additive cytotoxic effect in combination therapy with adavosertib” value (“additive cytotoxic effect … with adavosertib” for short) (H460 cell line; [1]) read?
**A.** Its value is “did not exhibit any significant additive cytotoxic effects”.

**Q.** What about the “additive cytotoxic effect in combination therapy with ceralasertib” value (shortened to “additive cytotoxic effect … with ceralasertib”) (H460 cell line; [1]) of the same molecule?
**A.** Its value is “did not exhibit any significant additive cytotoxic effects”.

**Q.** What about the “Ratio combo/single under Normoxia” value (H460 cell line; H460, 2 μM ceralasertib) of the same molecule?
**A.** The value was 1.07.

**Q.** What about the “Ratio single/combo under Hypoxia” value (H460 cell line; H460, 2 μM ceralasertib) of the same molecule?
**A.** Its value is 1.71.

**Q.** What about the “Ratio single/combo under Hypoxia” value (H460 cell line; H460, 3 μM adavosertib) of the same molecule?
**A.** Its value is 1.56.

**Q.** And the “Ratio single/combo under Normoxia” value (H460 cell line; H460, 3 μM adavosertib)?
**A.** The value was 1.12.

**Q.** What about the “Ratio single/combo under Hypoxia” value (H460 cell line; H460, 20 μM ceralasertib) of the same molecule?
**A.** Its value is 1.49.

**Q.** And the “Ratio single/combo under Normoxia” value (H460 cell line; H460, 20 μM ceralasertib)?
**A.** The value was 1.05.

**Q.** And the “Ratio single/combo under Hypoxia” value (H460 cell line; H460, 30 μM adavosertib)?
**A.** The value was 2.14.

**Q.** And the “Ratio single/combo under Hypoxia” value (H460 cell line; H460, 1000 μM ceralasertib)?
**A.** The value was >6.17.

**Q.** And the “Ratio single/combo under Normoxia” value (H460 cell line; H460, 1000 μM ceralasertib)?
**A.** Its value is 1.36.

**Q.** What about the “Normoxia/Hypoxia Ratio” value (H460 cell line; H460, monotherapy, Table 17) of the same molecule?
**A.** The value was 824.83.

**Q.** What about the “Normoxia/Hypoxia Ratio” value (H460 cell line; H460, monotherapy, Table 19) of the same molecule?
**A.** The value was 1737.84.

**Q.** What about the “Normoxia/Hypoxia Ratio” value (H460 cell line; H460, with 2 μM ceralasertib) of the same molecule?
**A.** Its value is 3190.74.

**Q.** What about the “Normoxia/Hypoxia Ratio” value (H460 cell line; H460, with 3 μM adavosertib) of the same molecule?
**A.** Its value is 1448.06.

**Q.** What about the “Normoxia/Hypoxia Ratio” value (H460 cell line; H460, with 20 μM ceralasertib) of the same molecule?
**A.** Its value is 2464.52.

**Q.** And the “Normoxia/Hypoxia Ratio” value (H460 cell line; H460, with 30 μM adavosertib)?
**A.** Its value is 1518.50.

**Q.** What about the “Normoxia/Hypoxia Ratio” value (H460 cell line; H460, with 1000 μM ceralasertib) of the same molecule?
**A.** The value was >7853.33.

**Q.** And the IC50 (H460 cell line; monotherapy, hypoxia, adavosertib series (Table 17))?
**A.** Its IC50 is 0.0255 µM.

**Q.** What about the IC50 (H460 cell line; monotherapy, hypoxia, ceralasertib series (Table 19)) of the same molecule?
**A.** Its IC50 is 0.0185 µM.

**Q.** And the IC50 (H460 cell line; monotherapy, normoxia, adavosertib series (Table 17))?
**A.** Its IC50 is 21 µM.

**Q.** And the IC50 (H460 cell line; monotherapy, normoxia, ceralasertib series (Table 19))?
**A.** The IC50 was 32.1 µM.

**Q.** And the IC50 (H460 cell line; with 2 μM ceralasertib, hypoxia)?
**A.** Its IC50 is 0.0108 µM.

**Q.** And the IC50 (H460 cell line; with 2 μM ceralasertib, normoxia)?
**A.** Its IC50 is 34.5 µM.

**Q.** And the IC50 (H460 cell line; with 3 μM adavosertib, hypoxia)?
**A.** Its IC50 is 0.0163 µM.

**Q.** What about the IC50 (H460 cell line; with 3 μM adavosertib, normoxia) of the same molecule?
**A.** The IC50 was 23.6 µM.

**Q.** And the IC50 (H460 cell line; with 20 μM ceralasertib, hypoxia)?
**A.** The IC50 was 0.0124 µM.

**Q.** What about the IC50 (H460 cell line; with 20 μM ceralasertib, normoxia) of the same molecule?
**A.** The IC50 was 30.6 µM.

**Q.** What about the IC50 (H460 cell line; with 30 μM adavosertib, hypoxia) of the same molecule?
**A.** The IC50 was 0.0119 µM.

**Q.** And the IC50 (H460 cell line; with 30 μM adavosertib, normoxia)?
**A.** Its IC50 is 18.1 µM.

**Q.** And the IC50 (H460 cell line; with 1000 μM ceralasertib, hypoxia)?
**A.** The IC50 was < 0.003 µM.

**Q.** What about the IC50 (H460 cell line; with 1000 μM ceralasertib, normoxia) of the same molecule?
**A.** Its IC50 is 23.6 µM.

**Q.** What about the “additive cytotoxic effect … with adavosertib” value (HT29 cell line; adavosertib at a high concentration, hypoxia) of the same molecule?
**A.** The value was “significant additive cytotoxic effect”.

**Q.** And the “additive cytotoxic effect … with ceralasertib” value (HT29 cell line; ceralasertib at a high concentration, hypoxia)?
**A.** The value was “significant additive cytotoxic effect”.

**Q.** And the “additive cytotoxic effect … with adavosertib” value (HT29 cell line; normoxia)?
**A.** Its value is “did not exhibit any significant additive cytotoxic effects”.

**Q.** And the “additive cytotoxic effect … with ceralasertib” value (HT29 cell line; normoxia)?
**A.** The value was “did not exhibit any significant additive cytotoxic effects”.

**Q.** And the “Ratio single/combo under Hypoxia” value (HT29 cell line; 1 μM adavosertib)?
**A.** The value was 2.49.

**Q.** What about the “Ratio single/combo under Normoxia” value (HT29 cell line; 1 μM adavosertib) of the same molecule?
**A.** The value was 2.41.

**Q.** And the “Ratio single/combo under Hypoxia” value (HT29 cell line; 10 μM adavosertib)?
**A.** The value was 8.68.

**Q.** And the “Ratio single/combo under Normoxia” value (HT29 cell line; 10 μM adavosertib)?
**A.** The value was 6.57.

**Q.** What about the “Ratio single/combo under Hypoxia” value (HT29 cell line; 200 μM ceralasertib) of the same molecule?
**A.** Its value is 7.11.

**Q.** And the “Ratio single/combo under Normoxia” value (HT29 cell line; 200 μM ceralasertib)?
**A.** Its value is 1.24.

**Q.** What about the “Ratio single/combo under Hypoxia” value (HT29 cell line; 2000 μM ceralasertib) of the same molecule?
**A.** Its value is >44.66.

**Q.** What about the “Ratio single/combo under Normoxia” value (HT29 cell line; 2000 μM ceralasertib) of the same molecule?
**A.** The value was 2.77.

**Q.** And the “Normoxia/Hypoxia Ratio” value (HT29 cell line; monotherapy, Table 16)?
**A.** The value was 74.35.

**Q.** What about the “Normoxia/Hypoxia Ratio” value (HT29 cell line; monotherapy, Table 18) of the same molecule?
**A.** The value was 51.62.

**Q.** What about the “Normoxia/Hypoxia Ratio” value (HT29 cell line; with 1 μM adavosertib) of the same molecule?
**A.** Its value is 76.80.

**Q.** What about the “Normoxia/Hypoxia Ratio” value (HT29 cell line; with 10 μM adavosertib) of the same molecule?
**A.** Its value is 98.18.

**Q.** What about the “Normoxia/Hypoxia Ratio” value (HT29 cell line; with 200 μM ceralasertib) of the same molecule?
**A.** The value was 294.78.

**Q.** What about the “Normoxia/Hypoxia Ratio” value (HT29 cell line; with 2000 μM ceralasertib) of the same molecule?
**A.** Its value is >821.56.

**Q.** And the IC50 (HT29 cell line; monotherapy, hypoxia, adavosertib series (Table 16))?
**A.** Its IC50 is 23.4 µM.

**Q.** What about the IC50 (HT29 cell line; monotherapy, hypoxia, ceralasertib series (Table 18)) of the same molecule?
**A.** The IC50 was 14.3 µM.

**Q.** And the IC50 (HT29 cell line; monotherapy, normoxia, adavosertib series (Table 16))?
**A.** The IC50 was ~1740 µM.

**Q.** And the IC50 (HT29 cell line; monotherapy, normoxia, ceralasertib series (Table 18))?
**A.** The IC50 was 738 µM.

**Q.** What about the IC50 (HT29 cell line; with 1 μM adavosertib, hypoxia) of the same molecule?
**A.** The IC50 was 9.38 µM.

**Q.** And the IC50 (HT29 cell line; with 1 μM adavosertib, normoxia)?
**A.** The IC50 was 720 µM.

**Q.** And the IC50 (HT29 cell line; with 10 μM adavosertib, hypoxia)?
**A.** The IC50 was 2.69 µM.

**Q.** And the IC50 (HT29 cell line; with 10 μM adavosertib, normoxia)?
**A.** Its IC50 is 264 µM.

**Q.** What about the IC50 (HT29 cell line; with 200 μM ceralasertib, hypoxia) of the same molecule?
**A.** The IC50 was 2.01 µM.

**Q.** What about the IC50 (HT29 cell line; with 200 μM ceralasertib, normoxia) of the same molecule?
**A.** Its IC50 is 592 µM.

**Q.** What about the IC50 (HT29 cell line; with 2000 μM ceralasertib, hypoxia) of the same molecule?
**A.** The IC50 was < 0.32 µM.

**Q.** What about the IC50 (HT29 cell line; with 2000 μM ceralasertib, normoxia) of the same molecule?
**A.** Its IC50 is 266 µM.
